Test results taken from patent publication US12139520B2 (priority 2020, dated 2024).
Bridge positions count the residues as written; N and C are the ends. Square brackets hold non-standard residues; d marks the D form. Peptide text beside a SMILES is read from it. Hyp = O=C(O)[C@@H]1C[C@@H](O)CN1

Experiments:
[1] = target: T1, hAMY3 receptor (Homo sapiens, UniProt O60896+P30988); assay: cAMP assay for in vitro receptor activation, hAMY3-R; assay type: cell-based; details: cAMP assay, hAMY3 receptor; read-out: hAMY3R EC50
T1 sequence (P30988 25-474): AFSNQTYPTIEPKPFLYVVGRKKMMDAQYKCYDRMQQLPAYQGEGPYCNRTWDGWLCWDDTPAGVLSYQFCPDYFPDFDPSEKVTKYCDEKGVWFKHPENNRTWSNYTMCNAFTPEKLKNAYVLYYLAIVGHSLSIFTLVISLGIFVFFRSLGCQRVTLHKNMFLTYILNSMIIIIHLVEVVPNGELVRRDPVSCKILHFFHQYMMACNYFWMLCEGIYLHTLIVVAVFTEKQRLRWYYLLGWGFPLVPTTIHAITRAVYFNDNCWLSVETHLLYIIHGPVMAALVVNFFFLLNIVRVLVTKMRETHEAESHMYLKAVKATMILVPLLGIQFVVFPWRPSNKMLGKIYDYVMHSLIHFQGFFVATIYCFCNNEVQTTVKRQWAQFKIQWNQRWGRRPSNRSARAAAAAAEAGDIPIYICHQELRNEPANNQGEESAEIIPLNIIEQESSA
T1 sequence (O60896 24-148 partner): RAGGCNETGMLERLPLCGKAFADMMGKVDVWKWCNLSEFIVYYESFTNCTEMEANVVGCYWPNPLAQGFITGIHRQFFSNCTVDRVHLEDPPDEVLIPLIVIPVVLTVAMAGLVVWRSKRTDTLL
In short: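 Monoclonal cell line stably overexpressing human AMY3 receptor, 2000 cells/well in DPBS with 0.05% casein and 0.5 mM IBMX. Stimulated 30 min at room temperature with graded compound doses, human amylin as positive control. cAMP accumulation read by TR-FRET after one hour.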

[2] = Physical stability of peptide analogues (Thioflavin T fibrillation); assay type: physicochemical; details: maximum ThT signal normalized between hAMY maximum and buffer background; 40° C., shaking, four days; pH 7 per table title
In short: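 1 h in 50 mM NaOAc pH 4 / 50 mM NaPi pH 7; + ThT 4 μM final; 40 °C, 700 rpm linear shake 5 min pre-read; ex 450, em 480 nm q10 min × 4 d; LOESS smoothing; max signal normalised to hAMY max vs buffer blank.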

SMILES	EC50 [1] [nM]	Max ThT signal (%) [2] [%]
CC[C@H](C)[C@H](NC(=O)[C@H](CCC(N)=O)NC(=O)[C@H](Cc1c[nH]cn1)NC(=O)[C@H](C)NC(=O)[C@H](CC(C)C)NC(=O)[C@H](CCCNC(=N)N)NC(=O)[C@H](CCC(N)=O)NC(=O)[C@@H](NC(=O)[C@@H](NC(=O)[C@@H]1CSSC[C@H](NC(=O)CN)C(=O)N[C@@H](CCCNC(=N)N)C(=O)N[C@@H](Cc2ccccc2)C(=O)NCC(=O)N[C@@H]([C@@H](C)O)C(=O)N1)[C@@H](C)O)C(C)C)C(=O)N[C@@H](Cc1ccc(O)cc1)C(=O)N[C@@H](CCC(N)=O)C(=O)N[C@@H](Cc1ccccc1)C(=O)N[C@H](C(=O)N[C@@H](CC(=O)O)C(=O)N[C@@H](CCCCN)C(=O)N[C@@H](CC(=O)O)C(=O)N[C@@H](CCCCN)C(=O)N[C@@H](CC(=O)O)C(=O)N[C@@H](CC(N)=O)C(=O)N[C@H](C(=O)N[C@@H](C)C(=O)N1CCC[C@H]1C(=O)N[C@@H](CCCNC(=N)N)C(=O)N[C@H](C(=O)N[C@@H](CC(N)=O)C(=O)N[C@H](C(=O)N[C@@H](CO)C(=O)N1CCC[C@H]1C(=O)N[C@@H](CCC(N)=O)C(=O)NCC(=O)N[C@@H](Cc1ccc(O)cc1)C(N)=O)C(C)C)[C@@H](C)O)C(C)C)[C@@H](C)O [compound 116] (H-GCRFGTCTVQRLAHQIYQFTDKDKDNVAPRTNVSPQGY-NH2; disulfide 2-7; N-terminus assumed)	0.024	11.700
CC[C@H](C)[C@H](NC(=O)[C@H](CC(N)=O)NC(=O)[C@@H](NC(=O)[C@H](CCCNC(=N)N)NC(=O)[C@@H]1CCCN1C(=O)[C@H](C)NC(=O)[C@@H](NC(=O)[C@H](CC(N)=O)NC(=O)[C@H](CC(=O)O)NC(=O)[C@H](CCCCN)NC(=O)[C@H](CC(=O)O)NC(=O)[C@H](CCCCN)NC(=O)[C@H](CC(=O)O)NC(=O)[C@@H](NC(=O)[C@H](Cc1ccccc1)NC(=O)[C@H](CCC(N)=O)NC(=O)[C@H](Cc1ccc(O)cc1)NC(=O)[C@@H](NC(=O)[C@H](CCC(N)=O)NC(=O)[C@H](Cc1c[nH]cn1)NC(=O)[C@H](C)NC(=O)[C@H](CC(C)C)NC(=O)[C@H](CCCNC(=N)N)NC(=O)[C@H](CCC(N)=O)NC(=O)[C@@H](NC(=O)[C@@H](NC(=O)[C@@H]1CSSC[C@H](NC(=O)CN)C(=O)N[C@@H](CCCNC(=N)N)C(=O)N[C@@H]([C@@H](C)O)C(=O)NCC(=O)N[C@@H]([C@@H](C)O)C(=O)N1)[C@@H](C)O)C(C)C)[C@@H](C)CC)[C@@H](C)O)C(C)C)[C@@H](C)O)C(=O)NCC(=O)N1CCC[C@H]1C(=O)N[C@@H](CCC(N)=O)C(=O)NCC(=O)N1C[C@H](O)C[C@H]1C(N)=O [compound 118] (H-GCRTGTCTVQRLAHQIYQFTDKDKDNVAPRTNIGPQG[Hyp]-NH2; disulfide 2-7; N-terminus assumed)	0.024	7.400
CC[C@H](C)[C@H](NC(=O)[C@H](CCC(N)=O)NC(=O)[C@H](Cc1c[nH]cn1)NC(=O)[C@H](C)NC(=O)[C@H](CC(C)C)NC(=O)[C@H](CCCNC(=N)N)NC(=O)[C@H](CCC(N)=O)NC(=O)[C@@H](NC(=O)[C@@H](NC(=O)[C@@H]1CSSC[C@H](NC(=O)CN)C(=O)N[C@@H](CCCNC(=N)N)C(=O)N[C@@H]([C@@H](C)O)C(=O)NCC(=O)N[C@@H]([C@@H](C)O)C(=O)N1)[C@@H](C)O)C(C)C)C(=O)N[C@@H](Cc1ccc(O)cc1)C(=O)N[C@@H](CCC(N)=O)C(=O)N[C@@H](Cc1ccccc1)C(=O)N[C@H](C(=O)N[C@@H](CC(=O)O)C(=O)N[C@@H](CCCCN)C(=O)N[C@@H](CC(=O)O)C(=O)N[C@@H](CCCCN)C(=O)N[C@@H](CC(=O)O)C(=O)N[C@@H](CC(N)=O)C(=O)N[C@H](C(=O)N[C@@H](C)C(=O)N1CCC[C@H]1C(=O)N[C@@H](CCCNC(=N)N)C(=O)N[C@@H](CO)C(=O)N[C@@H](CC(N)=O)C(=O)N[C@H](C(=O)NCC(=O)N1CCC[C@H]1C(=O)N[C@@H](CCC(N)=O)C(=O)NCC(=O)N1C[C@H](O)C[C@H]1C(N)=O)C(C)C)C(C)C)[C@@H](C)O [compound 121] (H-GCRTGTCTVQRLAHQIYQFTDKDKDNVAPRSNVGPQG[Hyp]-NH2; disulfide 2-7; N-terminus assumed)	0.026	1.800
CC[C@H](C)[C@H](NC(=O)[C@H](CCC(N)=O)NC(=O)[C@H](Cc1c[nH]cn1)NC(=O)[C@H](C)NC(=O)[C@H](CC(C)C)NC(=O)[C@H](CCCNC(=N)N)NC(=O)[C@H](CCC(N)=O)NC(=O)[C@@H](NC(=O)[C@@H](NC(=O)[C@@H]1CSSC[C@H](NC(=O)CN)C(=O)N[C@@H](CCCNC(=N)N)C(=O)N[C@@H](Cc2ccccc2)C(=O)NCC(=O)N[C@@H]([C@@H](C)O)C(=O)N1)[C@@H](C)O)C(C)C)C(=O)N[C@@H](Cc1ccc(O)cc1)C(=O)N[C@@H](CCC(N)=O)C(=O)N[C@@H](Cc1ccccc1)C(=O)N[C@H](C(=O)N[C@@H](CC(=O)O)C(=O)N[C@@H](CCCCN)C(=O)N[C@@H](CC(=O)O)C(=O)N[C@@H](CCCCN)C(=O)N[C@@H](CC(=O)O)C(=O)N[C@@H](CC(N)=O)C(=O)N[C@H](C(=O)N[C@@H](C)C(=O)N1CCC[C@H]1C(=O)N[C@@H](CCCNC(=N)N)C(=O)N[C@H](C(=O)N[C@@H](CC(N)=O)C(=O)N[C@H](C(=O)N[C@@H](CO)C(=O)N1CCC[C@H]1C(=O)N[C@@H](CCC(N)=O)C(=O)NCC(=O)N1C[C@H](O)C[C@H]1C(N)=O)C(C)C)[C@@H](C)O)C(C)C)[C@@H](C)O [compound 125] (H-GCRFGTCTVQRLAHQIYQFTDKDKDNVAPRTNVSPQG[Hyp]-NH2; disulfide 2-7; N-terminus assumed)	0.027	7.200

Stronger by EC50 [1], values ahead:

EC50 [1] [nM]	Max ThT signal (%) [2] [%]	SMILES
0.022	14.700	CC[C@H](C)[C@H](NC(=O)[C@H](CCC(N)=O)NC(=O)[C@H](Cc1c[nH]cn1)NC(=O)[C@H](C)NC(=O)[C@H](CC(C)C)NC(=O)[C@H](CCCNC(=N)N)NC(=O)[C@H](CCC(N)=O)NC(=O)[C@@H](NC(=O)[C@@H](NC(=O)[C@@H]1CSSC[C@H](NC(=O)CN)C(=O)N[C@@H](CCCNC(=N)N)C(=O)N[C@@H](Cc2ccccc2)C(=O)NCC(=O)N[C@@H]([C@@H](C)O)C(=O)N1)[C@@H](C)O)C(C)C)C(=O)N[C@@H](Cc1ccc(O)cc1)C(=O)N[C@@H](CCC(N)=O)C(=O)N[C@@H](Cc1ccccc1)C(=O)N[C@H](C(=O)N[C@@H](CC(=O)O)C(=O)N[C@@H](CCCCN)C(=O)N[C@@H](CC(=O)O)C(=O)N[C@@H](CCCCN)C(=O)N[C@@H](CC(=O)O)C(=O)N[C@@H](CC(N)=O)C(=O)N[C@H](C(=O)N[C@@H](C)C(=O)N1CCC[C@H]1C(=O)N[C@@H](CCCNC(=N)N)C(=O)N[C@H](C(=O)N[C@@H](CCCCN)C(=O)N[C@H](C(=O)N[C@@H](CO)C(=O)N1CCC[C@H]1C(=O)N[C@@H](CC(N)=O)C(=O)NCC(=O)N1C[C@H](O)C[C@H]1C(N)=O)[C@@H](C)CC)[C@@H](C)O)C(C)C)[C@@H](C)O [compound 113] (H-GCRFGTCTVQRLAHQIYQFTDKDKDNVAPRTKISPNG[Hyp]-NH2; disulfide 2-7; N-terminus assumed)
0.02	9.300	CC[C@H](C)[C@H](NC(=O)[C@H](CCC(N)=O)NC(=O)[C@H](Cc1c[nH]cn1)NC(=O)[C@H](C)NC(=O)[C@H](CC(C)C)NC(=O)[C@H](CCCNC(=N)N)NC(=O)[C@H](CCC(N)=O)NC(=O)[C@@H](NC(=O)[C@@H](NC(=O)[C@@H]1CSSC[C@H](NC(=O)CN)C(=O)N[C@@H](CCCNC(=N)N)C(=O)N[C@@H]([C@@H](C)O)C(=O)NCC(=O)N[C@@H]([C@@H](C)O)C(=O)N1)[C@@H](C)O)C(C)C)C(=O)N[C@@H](Cc1ccc(O)cc1)C(=O)N[C@@H](CCC(N)=O)C(=O)N[C@@H](Cc1ccccc1)C(=O)N[C@H](C(=O)N[C@@H](CC(=O)O)C(=O)N[C@@H](CCCCN)C(=O)N[C@@H](CC(=O)O)C(=O)N[C@@H](CCCCN)C(=O)N[C@@H](CC(=O)O)C(=O)N[C@@H](CC(N)=O)C(=O)N[C@H](C(=O)N[C@@H](C)C(=O)N1CCC[C@H]1C(=O)N[C@@H](CCCNC(=N)N)C(=O)N[C@H](C(=O)N[C@@H](CC(N)=O)C(=O)N[C@H](C(=O)NCC(=O)N1CCC[C@H]1C(=O)N[C@@H](CCC(N)=O)C(=O)NCC(=O)N[C@@H](Cc1ccc(O)cc1)C(N)=O)C(C)C)[C@@H](C)O)C(C)C)[C@@H](C)O [compound 109] (H-GCRTGTCTVQRLAHQIYQFTDKDKDNVAPRTNVGPQGY-NH2; disulfide 2-7; N-terminus assumed)
